Reference: BigSolDB 2.1

COc1ccccc1N1CCN(CC(O)COc2cccc3ccccc23)CC1 (stereo not given)
solubility (mole fraction)
Conditions | 288.15 K | 293.15 K | 298.15 K | 303.15 K | 308.15 K | 313.15 K | 318.15 K | 323.15 K | 328.15 K
in DMSO | – | 0.0283 | 0.0323 | 0.0367 | 0.0416 | 0.0468 | 0.0527 | 0.059 | 0.066
in ethanol | 0.00142 | 0.00163 | 0.00189 | 0.00216 | 0.00244 | 0.00277 | 0.00314 | 0.00355 | 0.00397
in isopropanol | 0.000714 | 0.000827 | 0.000959 | 0.00111 | 0.00127 | 0.00145 | 0.00165 | 0.00186 | 0.00213
in water | 2.07e-06 | 2.69e-06 | 3.46e-06 | 4.43e-06 | 5.65e-06 | 7.05e-06 | 8.85e-06 | 1.09e-05 | 1.37e-05
